Measured values taken from US20150296790A1, “SILICON-CONTAINING COMPOUND AQUEOUS SOLUTION AND ANTIBACTERIAL/ANTIVIRAL AGENT INCLUDING SAID SOLUTION” (JEX CO., LTD., priority 2012, published 2015).

Test: Stability over time (three-month storage tests, visual)
Type: physicochemical
Settings: purified water

For `CCCCCCCCCCCCCCCCCC[N+](C)(C)CCC[Si](OCC)(OCC)OCC.[Cl-]` [Compound E, Octadecyl dimethyl(3-triethoxysilylpropyl)ammonium chloride], the “Change Over 3 Months (Accelerated Test at 40° C., Cold Test at 5° C., Ambient Test at 25° C.)” value (“Change Over 3 Months” for short) (α-CD 1 w/w %, Compound E 0.7 w/w %) was “Stable”, the “Change Over 3 Months” value (α-CD 1 w/w %, Compound E 0.8 w/w %) was “Clear but some precipitation was observed” and the “Change Over 3 Months” value (α-CD 1 w/w %, Compound E 0.9 w/w %) was “Clear but some precipitation was observed”. For the same molecule, the “Change Over 3 Months” value (α-CD 1 w/w %, Compound E 1 w/w %) was “Clear but some precipitation was observed”, the “Change Over 3 Months” value (α-CD 7 w/w %, Compound E 0.1 w/w %) was “Stable” and the “Change Over 3 Months” value (α-CD 7 w/w %, Compound E 0.2 w/w %) was “Stable”. The “Change Over 3 Months” value (α-CD 7 w/w %, Compound E 0.3 w/w %) was “Stable”, the “Change Over 3 Months” value (α-CD 7 w/w %, Compound E 0.4 w/w %) was “Stable” and the “Change Over 3 Months” value (α-CD 7 w/w %, Compound E 0.5 w/w %) was “Stable”. The “Change Over 3 Months” value (α-CD 7 w/w %, Compound E 0.6 w/w %) was “Stable”, the “Change Over 3 Months” value (α-CD 7 w/w %, Compound E 0.7 w/w %) was “Stable” and the “Change Over 3 Months” value (α-CD 7 w/w %, Compound E 0.8 w/w %) was “Stable”. The “Change Over 3 Months” value (α-CD 7 w/w %, Compound E 0.9 w/w %) was “Stable”, the “Change Over 3 Months” value (α-CD 7 w/w %, Compound E 1 w/w %) was “Stable” and the “Change Over 3 Months” value (β-CD 1 w/w %, Compound E 0.1 w/w %) was “Not changed”. The “Change Over 3 Months” value (β-CD 1 w/w %, Compound E 0.2 w/w %) was “Not changed”, the “Change Over 3 Months” value (β-CD 1 w/w %, Compound E 0.3 w/w %) was “Not changed” and the “Change Over 3 Months” value (β-CD 1 w/w %, Compound E 0.4 w/w %) was “Not changed”. For the same molecule, the “Change Over 3 Months” value (β-CD 1 w/w %, Compound E 0.5 w/w %) was “Not changed”, the “Change Over 3 Months” value (β-CD 1 w/w %, Compound E 0.6 w/w %) was “Not changed” and the “Change Over 3 Months” value (β-CD 1 w/w %, Compound E 0.7 w/w %) was “Not changed”. The “Change Over 3 Months” value (β-CD 1 w/w %, Compound E 0.8 w/w %) was “Not changed”, the “Change Over 3 Months” value (β-CD 1 w/w %, Compound E 0.9 w/w %) was “Not changed” and the “Change Over 3 Months” value (β-CD 1 w/w %, Compound E 1 w/w %) was “Not changed”. For the same molecule, the “Change Over 3 Months” value (γ-CD 10 w/w %, Compound E 0.1 w/w %) was “Precipitated”, the “Change Over 3 Months” value (γ-CD 10 w/w %, Compound E 0.2 w/w %) was “Precipitated” and the “Change Over 3 Months” value (γ-CD 10 w/w %, Compound E 0.3 w/w %) was “Precipitated”. For the same molecule, the “Change Over 3 Months” value (γ-CD 10 w/w %, Compound E 0.4 w/w %) was “Precipitated”, the “Change Over 3 Months” value (γ-CD 10 w/w %, Compound E 0.5 w/w %) was “Precipitated” and the “Change Over 3 Months” value (γ-CD 10 w/w %, Compound E 0.6 w/w %) was “Precipitated”. The “Change Over 3 Months” value (γ-CD 10 w/w %, Compound E 0.7 w/w %) was “Precipitated”, the “Change Over 3 Months” value (γ-CD 10 w/w %, Compound E 0.8 w/w %) was “Precipitated” and the “Change Over 3 Months” value (γ-CD 10 w/w %, Compound E 0.9 w/w %) was “Precipitated”. For the same molecule, the “Change Over 3 Months” value (γ-CD 10 w/w %, Compound E 1 w/w %) was “Precipitated”.
